From patent US7713994B2 (Wyeth LLC, priority 2005, dated 2010)
Read-outs that look alike come from different tables or passages of the source.

How the values were obtained:
cyclin E/CDK2 enzyme = molecular target: T1, cyclin E/CDK2 enzyme (Homo sapiens, UniProt P24941); assay: CDK2 ELISA kinase assay (phospho-Rb ser 795 detection); assay type: biochemical
T1 construct: made in house; host or cells: Sf9 insect cells, recombinant baculovirus
Method in brief: (§1)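 Wells were coated overnight with GST-Rb C-terminal fragment, then blocked. Compound (10 ug/ml final) and cyclin/CDK enzyme from baculovirus-infected Sf9 cells with 200 μM ATP reacted 1 h at 30° C. Ser795 phosphorylation was detected by ELISA at 450 nm.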

HCT-116 = assay: Cytotoxicity assay (SRB), HCT-116; assay type: cell-based; settings: Homo sapiens, HCT-116, 72 h, HCT116 cells, 3 days, SRB; read-out: In Vitro Cellular Activity IC50 HCT116
Method in brief: (§2)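 Overnight-seeded monolayers (4000–12000 cells/well by line) receive compound in 5% FBS medium at 37 °C, 7% CO2. After 3 d, or 6 d for BT474, cellular protein is fixed with cold TCA, stained with SRB and read at 540 nm against untreated wells.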

MCF-7 = assay: Cytotoxicity assay (SRB), MCF-7; assay type: cell-based; settings: Homo sapiens, MCF7, 72 h, MCF-7 cells, 3 days, SRB; read-out: In Vitro Cellular Activity IC50 MCF-7
Method in brief: as §2

cyclin D1/cdk 4 enzyme = molecular target: T2, cyclin D1/cdk 4 enzyme (Homo sapiens, UniProt P11802); assay: CDK4 ELISA kinase assay (phospho-Rb ser 795 detection); assay type: biochemical
T2 construct: made in house; host or cells: Sf9 insect cells, recombinant baculovirus
Method in brief: as §1

cyclin B/CDK1 enzyme = molecular target: T3, cyclin B/CDK1 enzyme (Homo sapiens, UniProt P06493); assay: CDK1 ELISA kinase assay (phospho-Rb ser 795 detection); assay type: biochemical
T3 construct: purchased New England BioLabs; host or cells: Sf9 insect cells, recombinant baculovirus
Method in brief: as §1

BT474 = assay: Cytotoxicity assay (SRB), BT474; assay type: cell-based; settings: Homo sapiens, BT-474, 144 h, BT474 cells, 6 days, SRB; read-out: In Vitro Cellular Activity IC50 BT474
Method in brief: as §2

LoVo = assay: Cytotoxicity assay (SRB), LoVo; assay type: cell-based; settings: Homo sapiens, LoVo, 72 h, LoVo cells, 3 days, SRB; read-out: In Vitro Cellular Activity IC50 LOVO
Method in brief: as §2

[1] = In Vitro Enzyme Assays, read-out: CDK2 IC50
[2] = In Vitro Enzyme Assays, 200 μM ATP, read-out: CDK4 IC50
[3] = In Vitro Enzyme Assays, read-out: CDK1 IC50
[4] = In Vitro Enzyme Assay, cyclin E/CDK2, read-out: CDK2 IC50
[5] = In Vitro Enzyme Assay, cyclin D1/cdk 4, read-out: CDK4 IC50
[6] = In Vitro Enzyme Assay, cyclin B/CDK1, read-out: CDK1 IC50

T2 sequence (P11802 whole entry, species assumed): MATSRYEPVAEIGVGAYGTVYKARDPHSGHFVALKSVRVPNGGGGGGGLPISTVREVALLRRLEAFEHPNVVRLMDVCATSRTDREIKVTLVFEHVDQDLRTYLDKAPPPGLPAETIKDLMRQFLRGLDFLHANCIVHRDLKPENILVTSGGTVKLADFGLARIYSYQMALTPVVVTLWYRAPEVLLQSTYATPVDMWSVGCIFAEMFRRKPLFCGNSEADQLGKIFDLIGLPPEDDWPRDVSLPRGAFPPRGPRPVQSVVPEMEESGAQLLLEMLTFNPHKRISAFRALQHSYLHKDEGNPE
T2 sequence (P24385 whole entry partner, species assumed): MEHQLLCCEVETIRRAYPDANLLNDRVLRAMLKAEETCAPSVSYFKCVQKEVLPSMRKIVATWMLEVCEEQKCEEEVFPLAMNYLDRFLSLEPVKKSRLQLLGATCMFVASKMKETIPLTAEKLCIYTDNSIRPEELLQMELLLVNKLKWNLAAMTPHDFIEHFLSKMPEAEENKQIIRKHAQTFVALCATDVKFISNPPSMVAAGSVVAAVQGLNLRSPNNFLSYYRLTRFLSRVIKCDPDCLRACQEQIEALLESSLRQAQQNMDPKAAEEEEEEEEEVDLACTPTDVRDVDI
T3 sequence (P06493 whole entry): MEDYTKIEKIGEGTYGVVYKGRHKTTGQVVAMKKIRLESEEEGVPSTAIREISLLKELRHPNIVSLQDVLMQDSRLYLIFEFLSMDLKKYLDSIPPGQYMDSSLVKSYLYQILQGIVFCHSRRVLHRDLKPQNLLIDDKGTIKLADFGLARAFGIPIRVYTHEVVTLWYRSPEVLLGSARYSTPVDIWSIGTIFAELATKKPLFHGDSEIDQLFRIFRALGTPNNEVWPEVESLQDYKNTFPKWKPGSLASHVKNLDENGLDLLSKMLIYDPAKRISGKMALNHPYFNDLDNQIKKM
T3 sequence (P14635 whole entry partner): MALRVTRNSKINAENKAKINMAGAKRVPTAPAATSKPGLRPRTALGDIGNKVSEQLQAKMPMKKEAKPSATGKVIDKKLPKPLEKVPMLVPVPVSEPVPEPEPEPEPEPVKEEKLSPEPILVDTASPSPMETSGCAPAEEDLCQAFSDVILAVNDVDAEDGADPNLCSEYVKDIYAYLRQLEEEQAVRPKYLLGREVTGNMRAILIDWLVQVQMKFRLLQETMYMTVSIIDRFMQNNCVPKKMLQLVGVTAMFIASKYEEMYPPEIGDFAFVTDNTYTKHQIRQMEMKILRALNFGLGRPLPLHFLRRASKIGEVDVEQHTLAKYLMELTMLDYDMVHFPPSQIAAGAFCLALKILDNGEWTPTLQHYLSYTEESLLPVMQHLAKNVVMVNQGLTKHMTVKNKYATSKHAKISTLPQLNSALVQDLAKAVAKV

Structure (SMILES)	IC50 (cyclin E/CDK2 enzyme; [1])	IC50 (cyclin D1/cdk 4 enzyme; [2])	melting point	IC50 (cyclin B/CDK1 enzyme; [3])	IC50 (cyclin E/CDK2 enzyme; [4])	IC50 (cyclin D1/cdk 4 enzyme; [5])	IC50 (cyclin B/CDK1 enzyme; [6])	IC50 (HCT-116)	IC50 (MCF-7)	IC50 (BT474)	IC50 (LoVo)
CN1CCN(c2ccc(N/C=C3\C(=O)NC(=O)c4ccc(Br)cc43)nc2)CC1 [Example 442, (4Z)-6-Bromo-4-({[5-(4-methylpiperazin-1-yl)pyridin-2-yl]amino}methylene)isoquinoline-1,3(2H,4H)-dione]	25.3 µM	3.3 µM	191 to 192 °C	15.8 µM	–	–	–	1.1 µM	2.4 µM	3.7 µM	4.1 µM
CN1CCN(c2ccc(N/C=C3\C(=O)NC(=O)c4ccc(-c5coc(C=O)c5)cc43)nc2)CC1 [Example 448, 4-[(4Z)-4-({[5-(4-Methylpiperazin-1-yl)pyridin-2-yl]amino}methylene)-1,3-dioxo-1,2,3,4-tetrahydroisoquinolin-6-yl]-2-furaldehyde]	> 50 µM	0.04 µM	183 to 184 °C	10 µM	–	–	–	2.4 µM	5 µM	6.6 µM	4.1 µM
COC[C@@H]1CCCN1Cc1ccc(N/C=C2\C(=O)NC(=O)c3ccc(-c4ccco4)cc32)cc1 [Example 467, (4Z)-6-(2-Furyl)-4-{[(4-{[(2S)-2-(methoxymethyl)pyrrolidin-1-yl]methyl}phenyl)amino]methylene}isoquinoline-1,3(2H,4H)-dione]	–	–	159 to 160 °C	–	> 50 µM	0.21 µM	> 50 µM	2.3 µM	1.9 µM	3.6 µM	2.4 µM
C[C@@H]1CN(c2ccc(N/C=C3\C(=O)NC(=O)c4ccc(-c5ccoc5)cc43)nc2)C[C@H](C)N1 [Example 468, (4Z)-4-[({5-[(3R,5S)-3,5-Dimethylpiperazin-1-yl]pyridin-2-yl}amino)methylene]-6-(3-furyl)isoquinoline-1,3(2H,4H)-dione]	–	–	230 to 231 °C	–	> 50 µM	0.17 µM	> 50 µM	1.1 µM	1.5 µM	2.1 µM	1.6 µM
CN1CCN(c2ccc(N/C=C3\C(=O)NC(=O)c4ccc(-c5cccn5C)cc43)cn2)CC1 [Example 474, (4Z)-4-({[6-(4-Methylpiperazin-1-yl)pyridin-3-yl]amino}methylene)-6-(1-methyl-1H-pyrrol-2-yl)isoquinoline-1,3(2H,4H)-dione]	–	–	216 to 217 °C	–	> 50 µM	4.2 µM	> 50 µM	3.5 µM	4 µM	7.4 µM	3.8 µM
CN1CCN(c2ccc(N/C=C3\C(=O)NC(=O)c4ccc(-c5ccoc5)cc43)nn2)CC1 [Example 476, (4Z)-6-(3-Furyl)-4-({[6-(4-methylpiperazin-1-yl)pyridazin-3-yl]amino}methylene)isoquinoline-1,3(2H,4H)-dione]	–	–	275 to 276 °C	–	> 50 µM	0.82 µM	24.7 µM	1.9 µM	4.5 µM	2.6 µM	3.1 µM
COC[C@@H]1CCCN1Cc1ccc(N/C=C2\C(=O)NC(=O)c3ccc(I)cc32)nc1 [Example 478, (4Z)-6-Iodo-4-{[(5-{[(2S)-2-(methoxymethyl)pyrrolidin-1-yl]methyl}pyridin-2-yl)amino]methylene}isoquinoline-1,3(2H,4H)-dione]	–	–	185 to 186 °C	–	> 50 µM	17.6 µM	> 50 µM	24.2 µM	44.8 µM	> 50 µM	46.8 µM
CCN1CCN(c2ccc(N/C=C3\C(=O)NC(=O)c4ccc(-c5ccoc5)cc43)nc2)CC1 [Example 481, (4Z)-4-({[5-(4-Ethylpiperazin-1-yl)pyridin-2-yl]amino}methylene)-6-(3-furyl)isoquinoline-1,3(2H,4H)-dione]	–	–	256 to 257 °C	–	> 50 µM	0.19 µM	> 50 µM	0.88 µM	1.1 µM	0.6 µM	0.96 µM
O=C1NC(=O)c2ccc(-c3ccc(F)cc3)cc2/C1=C/Nc1ccc(CN2CCC(CCO)CC2)cc1 [Example 482, (4Z)-6-(4-Fluorophenyl)-4-{[(4-{[4-(2-hydroxyethyl)piperidin-1-yl]methyl}phenyl)amino]methylene}isoquinoline-1,3(2H,4H)-dione]	–	–	202 to 203 °C	–	> 50 µM	0.12 µM	> 50 µM	2.5 µM	0.84 µM	1.3 µM	2.7 µM
CC(C)N1CCN(c2ccc(N/C=C3\C(=O)NC(=O)c4ccc(-c5ccoc5)cc43)nc2)CC1 [Example 488, (4Z)-6-(3-Furyl)-4-({[5-(4-isopropylpiperazin-1-yl)pyridin-2-yl]amino}methylene)isoquinoline-1,3(2H,4H)-dione]	–	–	278 to 279 °C	–	> 50 µM	0.43 µM	> 50 µM	3.16 µM	2.27 µM	0.96 µM	2.41 µM

Continued, in another order:

IC50 (cyclin E/CDK2 enzyme; [1])	IC50 (cyclin D1/cdk 4 enzyme; [2])	melting point	IC50 (cyclin B/CDK1 enzyme; [3])	IC50 (cyclin E/CDK2 enzyme; [4])	IC50 (cyclin D1/cdk 4 enzyme; [5])	IC50 (cyclin B/CDK1 enzyme; [6])	Structure (SMILES)	IC50 (HCT-116)	IC50 (MCF-7)	IC50 (BT474)	IC50 (LoVo)
–	–	186 to 196 °C (dec.)	–	> 50 µM	3.7 µM	> 50 µM	CN1CCCC1c1ccc(N/C=C2\C(=O)NC(=O)c3ccc(-n4cccc4)cc32)nc1 (stereo not shown) [Example 459]	13 µM	10.7 µM	17.3 µM	9.5 µM
–	–	174 to 206 °C (dec.)	–	> 50 µM	18.3 µM	> 50 µM	CN1CCCC1c1ccc(N/C=C2\C(=O)NC(=O)c3ccc(I)cc32)nc1 (stereo not shown) [Example 460, (Z)-6-Iodo-4-((5-(1-methylpyrrolidin-2-yl)pyridin-2-ylamino)methylene)isoquinoline-1,3(2H,4H)-dione]	8.3 µM	10.3 µM	10 µM	9.4 µM
–	–	245 to 246 °C	–	17.6 µM	2.2 µM	2.7 µM	C[C@@H]1CN(c2ccc(N/C=C3\C(=O)NC(=O)c4ccc(Br)cc43)nc2)C[C@H](C)N1 [Example 469, (4Z)-6-Bromo-4-[({5-[(3R,5S)-3,5-dimethylpiperazin-1-yl]pyridin-2-yl}amino)methylene]isoquinoline-1,3(2H,4H)-dione]	0.8 µM	2.9 µM	2.2 µM	1.2 µM
–	–	210 to 218 °C (dec.)	–	0.19 µM	0.05 µM	2.5 µM	CCC(=O)Nc1cnc(CN/C=C2\C(=O)NC(=O)c3ccc(I)cc32)cc1O [Example 470, N-(4-Hydroxy-6-{[(6-iodo-1,3-dioxo-2,3-dihydro-1H-isoquinolin-4-ylidenemethyl)-amino]-methyl}-pyridin-3-yl)-propionamide]	20.9 µM	37.8 µM	2 µM	19.1 µM
–	–	176 to 196 °C (dec.)	–	28.7 µM	0.007 µM	> 50 µM	CCCOc1cn(C)c(CN/C=C2\C(=O)NC(=O)c3ccc(I)cc32)cc1=O [Example 471, 6-Iodo-4-{[(1-methyl-4-oxo-5-propoxy-1,4-dihydro-pyridin-2-ylmethyl)-amino]-methylene}-4H-isoquinoline-1,3-dione]	> 50 µM	> 50 µM	21.9 µM	> 50 µM
–	–	245 to 246 °C	–	40.6 µM	13.8 µM	24.2 µM	CN1CCN(c2ccc(N/C=C3\C(=O)NC(=O)c4ccc(Br)cc43)nn2)CC1 [Example 477, (4Z)-6-Bromo-4-({[6-(4-methylpiperazin-1-yl)pyridazin-3-yl]amino}methylene)isoquinoline-1,3(2H,4H)-dione]	1.6 µM	2.3 µM	4.1 µM	3.9 µM
–	–	223 to 224 °C	–	26.5 µM	0.21 µM	> 50 µM	O=C1NC(=O)c2ccc(I)cc2/C1=C/Nc1ccc(CN2CCC(CCO)CC2)cc1 [Example 480, (4Z)-4-{[(4-{[4-(2-Hydroxyethyl)piperidin-1-yl]methyl}phenyl)amino]methylene}-6-iodoisoquinoline-1,3(2H,4H)-dione]	3.3 µM	1.6 µM	1 µM	4.5 µM
